Test results as given in ChEMBL document CHEMBL1134667, “Physicochemical determinants of passive membrane permeability: role of solute hydrogen-bonding potential and volume” (J Med Chem, 2001).

Legend:
[1] = Apical to basolateral effective permeability; conditions: not told
[2] = Basolateral to apical effective permeability; conditions: not told
[3] = Partition coefficient (logP); conditions: octanol/water
[4] = Partition coefficient (logP) (heptane/glycol); conditions: heptane/ethylene glycol
[5] = Partition coefficient (logP) (heptane); conditions: heptane/water

| Papp A→B [1] [nm/s] | Papp B→A [2] [nm/s] | logP [3] | logP [4] | logP [5] | SMILES |
| --- | --- | --- | --- | --- | --- |
| 219 | 206 | 0.48 | -5 | -3.73 | CC(=O)NCC(=O)NCCc1ccccc1 |
| 583 | 584 | 3.13 | -3.41 | -0.9 | CC(=O)N[C@H](CC1CCCCC1)C(=O)NCCc1ccccc1 |
| – | – | 1.59 | -3.77 | -2.64 | CC(=O)N[C@@H](C(=O)NCCc1ccccc1)C(C)C |
| 9.1 | 18.4 | 0.66 | -5.79 | -5.33 | CNC(=O)[C@@H](Cc1ccccc1)NC(=O)[C@H](NC(C)=O)C(C)C |
| – | – | 2.32 | -3.7 | -2 | CC(=O)N[C@H](Cc1ccccc1)C(=O)NCCc1ccccc1 |
